In patent publication US10576147B2, “Muramyl peptide derivative compound, synthesis and uses thereof” (BHARAT BIOTECH INTERNATIONAL LIMITED, priority 2015, dated 2020):
Values after ≈ are worked out from the molar mass of the structure shown.

Experiments:
BALB/c mice = test: OVA-specific IgG after immunization (indirect ELISA); type: in vivo; settings: s.c. Days 1 and 15
Protocol: Male BALB/c mice were immunized subcutaneously with OVA 100 μg alone or with OVA 100 μg dissolved in saline containing analogues (7.5, 15 or 30 μg) on Days 1 and 15. Sera were collected 2 weeks after the last immunization. OVA-specific IgG antibodies in the sera were measured by an Indirect ELISA. The values are presented as log 2 titre.

J774.2A cells = test: Cytotoxicity assay (MTT); type: cell-based; settings: 24 hrs, read-out: IC50 (50% cell death or toxicity)
Protocol: Details of an assay are as explained in example 2.2.
J774.2A cells (2×10^4/well) were plated and incubated overnight. Next day, cells were treated with various concentrations of MDP-MN (10 fold dilutions with a concentration ranging from 0.005 mg/ml to 0.5 mg/ml & 2 mg/ml) and cultured for 24 hrs. Supernatant was discarded and cells were treated with 100 μl of MTT [3-(4,5-Dimethylthiazol-2-yl)-2,5-Diphenyltetrazolium Bromide] (5 mg/ml) and incubated for 3-4 hrs until formozan crystals were formed. Later, supernatant was discarded and crystals were dissolved with DMSO for 5-10 min. Absorbance was read at 540 nm. FIG. 2 represents cell toxicity effect of MDP-MN. X-axis represents concentration in log scale and Y-axis represents % toxicity.

splenocytes = test: Splenocyte proliferation (MTT); type: cell-based, mice; settings: mouse splenocytes, LPS and Con-A, 48 h
Protocol: Spleens were isolated from mice and were processed to single cell suspension. 96 well flat bottom Micro titer plates were seeded with 1×10^5 cells/well with RPMI1640 media. Cells were treated with compounds, OVA, Con A (2 μg/mL) and LPS (10 μg/mL) or medium giving a final volume of […]. Plates were incubated at 37° C. with 5% CO2 in an incubator. After 48 h of incubation […] of Triazolyl blue Tetrazolium Bromide (MTT) solution was added to each well, incubated for next 4 h. Untransformed MTT was removed from each well by aspirating the supernatant ([…]) and replaced with DMSO. The absorbance was read at 570 nm after 15 min.
Immunostimulating substances act through specific (antigen-dependent) T lymphocytes, B lymphocytes, and dendritic cells and also through non-specific mechanisms of action (antigen-independent) that involves granulocytes, macrophages, and NK cells. Being a secondary lymphoid organ, spleen contains a heterogeneous population of lymphocytes to examine the immunostimulant activity. However, proliferations of immune cells like T and B cells are the benchmark for immune potentiation. Cells were treated with or without OVA or in combination with MDP and MDP-MN. Type of immune response in all treated groups was measured with LPS and Con-A splenocyte proliferation assays depicted in FIG. 3. […] This is essential for B cell expansion.

[1] = tested on: Peripheral blood mononuclear cells (PBMCs); test: In-vitro pyrogen test (IL-1β, IL-6, TNF-α by ELISA); type: cell-based
Protocol: Generally, pyrogenicity of any molecule can be measured by the over production of pro-inflammatory cytokines IL-1β, IL-6, and TNFα, following an activation of monocytes in-vitro, which inturn, could be an indicative of increased reactogenicity in-vivo.
Frozen Peripheral blood mononuclear cells (PBMCs) were revived and plated (0.5×10^6 cells/ml, 100 μl) in 96 well round bottom cell culture plate. Cells were supplemented with RPMI 1640 medium (Gibco Laboratories, Grand Island, N.Y.) containing fetal bovine serum (10%), glutamine (2 mM), and pencillin-streptomycin. Cells further stimulated with LPS (10 ng/ml) or endotoxin (1 EU/ml, 0.5 EU/ml, 0.25 EU/ml, 0.125 EU/ml) or MDP-MN (10 or 100 μg/ml). Cells stimulated with LPS or endotoxin was incubated for 4 hrs where as cells stimulated with MDP derivatives of the present invention kept for incubation in humidified CO2 chamber at 37° C. for 24 hrs. After stimulation, cell culture supernatant was collected and cytokines (such as IL-1β, IL-6 or TNF-α) were measured by ELISA. Concentrations each cytokine produced by PBMCs in the presence of reference standard endotoxin at 0.5 EU/ml was measured in triplicates. Threshold levels were calculated for each cytokine, using the cytokine levels produced by the reference standard endotoxin at 0.5 EU/ml (Marina et al., Vaccine 30 (2012) 4859-4865).
To determine Interleukin 1β, Enzyme Linked Immunosorbent Assay (ELISA) was performed according to the instruction manual (ebioscience, cat#88-7010). Briefly, capture antibody (cat#14-7018-67, eBioscience) was first diluted 1:250 using coating buffer and added 100 μL to each well in 96-well microplate. Plates were incubated overnight at 2-8° C. Coated plates were then washed with wash buffer (PBST). After washing, these plates were blocked using 1× assay diluent for 1 hr at room temperature followed by washing with PBST. A series of 2 fold dilutions were made from top standard ranging from 4 to 500 pg/mL, to make the standard curve. Similarly, 4 fold dilutions (1:4, 1:16 & 1:64) of cell supernatant obtained from PBMCs stimulation with MDP-MN were prepared. Aliquot (100 μL) of diluted standards or cell supernatants were added to well in duplicates and the plate was incubated at room temperature for 2 hrs. After washing the plate, 100 μL/well of detection antibody (cat#33-7016-67) diluted in 1× Assay diluent was added and incubated at room temperature for 1 hr. Later, 100 μL/well of Avidin-HRP* diluted in 1× Assay diluent was added and incubated at room temperature for 30 minutes. Finally, after washes, 100 μL of substrate solution was added to each well and incubated at RT for 15 minutes. Reaction was stopped by the addition of 50 μL of 2N H2SO4 to each well and the plate was read at 450 nm. […]

mouse = test: rPvRII specific IgG endpoint titer; type: in vivo; settings: MDP-MN 10 μg/mouse

SMILES: C[C@H](NC(=O)[C@@H](C)O[C@H]1[C@H](O)[C@@H](CO)OC(O)[C@@H]1NC(=O)[C@H](O)CO)C(=O)N[C@H](CCC(=O)O)C(N)=O (stereo partly drawn) [MDP-MN, (4R)-5-amino-4-((2S)-2-((2R)-2-(((3R,4R,5S,6R)-3-((2,3-dihydroxypropanamido))-2,5-dihydroxy-6-(hydroxymethyl)tetrahydro-2H-pyran-4-yl)oxy)propanamido)propanamido)-5-oxopentanoic acid]
- Log(2) IgG Antibody Titre (BALB/c mice; adjuvant 7.5 μg per mouse with OVA 100 μg): nearly equal antibody titer
- Log(2) IgG Antibody Titre (BALB/c mice; adjuvant 15 μg per mouse with OVA 100 μg): highest serum IgG responses
- Log(2) IgG Antibody Titre (BALB/c mice; adjuvant 30 μg per mouse with OVA 100 μg): highest serum IgG responses
- IC50 (J774.2A cells): 99.2 µg/mL (≈ 184 µM)
- splenocyte proliferation (splenocytes): inducing the LPS mediated splenocyte proliferation
- IL-1β level vs threshold ([1]; MDP-MN at both 10 & 100 μg/ml, 24 hrs, (endotoxin 0.5 EU/ml)): within the threshold value
- TNF-α level vs threshold ([1]; MDP-MN at both 10 & 100 μg/ml, 24 hrs, threshold 753 μg/ml): within the threshold value
- IL-6 level vs threshold ([1]; MDP-MN at both 10 & 100 μg/ml, 24 hrs, threshold 3110 μg/ml): within the threshold value
- pyrogenicity ([1]; in-vitro pyrogen test): doesn't cause any pyrogenicity
- increase of antibody titer vs rPvRII alone (mouse): 4 fold
